Data from US11498899B2, “Nitrone herbicides” (FMC Corporation, priority 2016, dated 2022).

Columns and labels:
[1] = tested on: ragweed (common ragweed, Ambrosia elatior); experiment: Test A postemergence, visual injury rating 0-100; format: in vivo; conditions: 0 to 100 scale
[2] = tested on: wheat (Triticum aestivum); experiment: Test A postemergence, visual injury rating 0-100; format: in vivo; conditions: 0 to 100 scale
corn (Zea mays) = experiment: Test A postemergence, visual injury rating 0-100; format: in vivo; conditions: 0 to 100 scale
[3] = tested on: ryegrass, Italian (Italian ryegrass, Lolium multiflorum); experiment: Test A postemergence, visual injury rating 0-100; format: in vivo; conditions: 0 to 100 scale
[4] = tested on: blackgrass (Alopecurus myosuroides); experiment: Test A postemergence, visual injury rating 0-100; format: in vivo; conditions: 0 to 100 scale
kochia (Kochia scoparia) [5] = experiment: Test A postemergence, visual injury rating 0-100; format: in vivo; conditions: 0 to 100 scale
[6] = tested on: barnyardgrass (Echinochloa crus-galli); experiment: Test A postemergence, visual injury rating 0-100; format: in vivo; conditions: 0 to 100 scale
[7] = tested on: pigweed (Amaranthus retroflexus); experiment: Test A postemergence, visual injury rating 0-100; format: in vivo; conditions: 0 to 100 scale
[8] = tested on: foxtail, green (green foxtail, Setaria viridis); experiment: Test A postemergence, visual injury rating 0-100; format: in vivo; conditions: 0 to 100 scale
[9] = tested on: ragweed (common ragweed, Ambrosia elatior); experiment: Test A preemergence, visual injury rating 0-100; format: in vivo
[10] = tested on: ryegrass, Italian (Italian ryegrass, Lolium multiflorum); experiment: Test A preemergence, visual injury rating 0-100; format: in vivo
kochia (Kochia scoparia) [11] = experiment: Test A preemergence, visual injury rating 0-100; format: in vivo
[12] = tested on: pigweed (Amaranthus retroflexus); experiment: Test A preemergence, visual injury rating 0-100; format: in vivo
[13] = tested on: foxtail, green (green foxtail, Setaria viridis); experiment: Test A preemergence, visual injury rating 0-100; format: in vivo
[14] = tested on: barnyardgrass (Echinochloa crus-galli); experiment: Test B flooded paddy test, visual rating 0-100; conditions: Flood, 250 g ai/ha, applied to paddy water, rated after 13 to 15 days
[15] = tested on: barnyardgrass (Echinochloa crus-galli); experiment: Test A preemergence, visual injury rating 0-100 (0 no effect, 100 complete control); format: in vivo; conditions: for Barnyardgrass plant response rating (0 to 100 scale): 125 g ai/ha; for Barnyardgrass plant response rating: 500 g ai/ha, 0 to 100 scale
[16] = tested on: ducksalad (Heteranthera limosa); experiment: Test B flooded paddy test, visual rating 0-100; conditions: Flood, 250 g ai/ha, applied to paddy water, rated after 13 to 15 days
rice (Oryza sativa) = experiment: Test B flooded paddy test, visual rating 0-100 (0 no effect, 100 complete control); conditions: Flood, 250 g ai/ha, applied to paddy water, rated after 13 to 15 days

Row | SMILES | Ragweed plant response rating ([1]; 125 g ai/ha) | Ragweed plant response rating ([1]; 500 g ai/ha) | Wheat plant response rating ([2]; 125 g ai/ha) | Wheat plant response rating ([2]; 500 g ai/ha) | Corn plant response rating (corn (Zea mays); 125 g ai/ha) | Corn plant response rating (corn (Zea mays); 500 g ai/ha) | Ryegrass, Italian plant response rating ([3]; 500 g ai/ha) | Blackgrass plant response rating ([4]; 125 g ai/ha) | Blackgrass plant response rating ([4]; 500 g ai/ha) | Kochia plant response rating (kochia (Kochia scoparia) [5]; 125 g ai/ha) | Kochia plant response rating (kochia (Kochia scoparia) [5]; 500 g ai/ha) | Barnyardgrass plant response rating ([6]; 125 g ai/ha) | Barnyardgrass plant response rating ([6]; 500 g ai/ha) | Pigweed plant response rating ([7]; 125 g ai/ha) | Pigweed plant response rating ([7]; 500 g ai/ha) | Foxtail, Green plant response rating ([8]; 125 g ai/ha) | Foxtail, Green plant response rating ([8]; 500 g ai/ha) | Ragweed plant response rating (0 to 100 scale) ([9]; 125 g ai/ha) | Ragweed plant response rating (0 to 100 scale) ([9]; 500 g ai/ha) | Ryegrass, Italian plant response rating (0 to 100 scale) ([10]; 125 g ai/ha) | further results
1 | O=C(Nc1cccc(F)c1F)C1C(c2ccccc2)CC(C(F)(F)F)=[N+]1[O-] (racemic) [Compound 35] | 0 | 0 | 0 | 0 | 0 | 0 | 0 | 0 | 0 | 0 | 0 | 0 | 0 | 0 | 0 | 0 | 0 | 0 | 0 | 0 | Ryegrass, Italian plant response rating ([3]; 125 g ai/ha): 0; Ryegrass, Italian plant response rating (0 to 100 scale) ([10]; 500 g ai/ha): 0; Kochia plant response rating (0 to 100 scale) (kochia (Kochia scoparia) [11]; 125 g ai/ha): 0; Kochia plant response rating (0 to 100 scale) (kochia (Kochia scoparia) [11]; 500 g ai/ha): 0; Pigweed plant response rating (0 to 100 scale) ([12]; 125 g ai/ha): 0; Pigweed plant response rating (0 to 100 scale) ([12]; 500 g ai/ha): 0; Foxtail, Green plant response rating (0 to 100 scale) ([13]; 125 g ai/ha): 0; Foxtail, Green plant response rating (0 to 100 scale) ([13]; 500 g ai/ha): 0; Barnyardgrass plant response rating (0 to 100 scale) [14]: 0; Barnyardgrass plant response rating (0 to 100 scale) [15]: 0; Barnyardgrass plant response rating [15]: 0; Ducksalad plant response rating (0 to 100 scale) [16]: 0; Rice plant response rating (0 to 100 scale) (rice (Oryza sativa)): 0
2 | CC1=[N+]([O-])C(C(=O)Nc2ccncc2C(F)(F)F)C(c2ccc(C(F)(F)F)cc2)C1 (racemic) [Compound 36] | 0 | 0 | 0 | 0 | 20 | 0 | 20 | 20 | 20 | 0 | 0 | 0 | 0 | 0 | 0 | 0 | 20 | 0 | 80 | 10 | Ryegrass, Italian plant response rating (0 to 100 scale) ([10]; 500 g ai/ha): 60; Kochia plant response rating (0 to 100 scale) (kochia (Kochia scoparia) [11]; 125 g ai/ha): 0; Kochia plant response rating (0 to 100 scale) (kochia (Kochia scoparia) [11]; 500 g ai/ha): 90; Pigweed plant response rating (0 to 100 scale) ([12]; 125 g ai/ha): 0; Pigweed plant response rating (0 to 100 scale) ([12]; 500 g ai/ha): 60; Foxtail, Green plant response rating (0 to 100 scale) ([13]; 125 g ai/ha): 0; Foxtail, Green plant response rating (0 to 100 scale) ([13]; 500 g ai/ha): 100; Barnyardgrass plant response rating (0 to 100 scale) [14]: 30; Barnyardgrass plant response rating (0 to 100 scale) [15]: 70; Barnyardgrass plant response rating [15]: 60; Ducksalad plant response rating (0 to 100 scale) [16]: 0; Rice plant response rating (0 to 100 scale) (rice (Oryza sativa)): 0
3 | CC1=[N+]([O-])C(C(=O)Nc2ccc(F)c(F)c2F)C(c2ccc(C(F)(F)F)cc2)C1 (racemic) [Compound 38] | 0 | 20 | 30 | 60 | 20 | 70 | 20 | 40 | 70 | 0 | 0 | 90 | 60 | 0 | 30 | 70 | 90 | 30 | 90 | 30 | Ryegrass, Italian plant response rating ([3]; 125 g ai/ha): 30; Ryegrass, Italian plant response rating (0 to 100 scale) ([10]; 500 g ai/ha): 50; Kochia plant response rating (0 to 100 scale) (kochia (Kochia scoparia) [11]; 125 g ai/ha): 0; Kochia plant response rating (0 to 100 scale) (kochia (Kochia scoparia) [11]; 500 g ai/ha): 90; Pigweed plant response rating (0 to 100 scale) ([12]; 125 g ai/ha): 30; Pigweed plant response rating (0 to 100 scale) ([12]; 500 g ai/ha): 80; Foxtail, Green plant response rating (0 to 100 scale) ([13]; 125 g ai/ha): 100; Foxtail, Green plant response rating (0 to 100 scale) ([13]; 500 g ai/ha): 100; Barnyardgrass plant response rating (0 to 100 scale) [14]: 60; Barnyardgrass plant response rating (0 to 100 scale) [15]: 90; Barnyardgrass plant response rating [15]: 100; Ducksalad plant response rating (0 to 100 scale) [16]: 65; Rice plant response rating (0 to 100 scale) (rice (Oryza sativa)): 0
4 | CC1=[N+]([O-])C(C(=O)Nc2ccccc2S(C)(=O)=O)C(c2ccc(C(F)(F)F)cc2)C1 (racemic) [Compound 43] | 0 | 0 | 0 | 0 | 0 | 0 | 20 | 0 | 30 | 0 | 0 | 20 | 60 | 0 | 0 | 20 | 60 | 0 | 100 | 0 | Ryegrass, Italian plant response rating ([3]; 125 g ai/ha): 0; Ryegrass, Italian plant response rating (0 to 100 scale) ([10]; 500 g ai/ha): 0; Kochia plant response rating (0 to 100 scale) (kochia (Kochia scoparia) [11]; 125 g ai/ha): 0; Kochia plant response rating (0 to 100 scale) (kochia (Kochia scoparia) [11]; 500 g ai/ha): 80; Pigweed plant response rating (0 to 100 scale) ([12]; 125 g ai/ha): 40; Pigweed plant response rating (0 to 100 scale) ([12]; 500 g ai/ha): 90; Foxtail, Green plant response rating (0 to 100 scale) ([13]; 125 g ai/ha): 80; Foxtail, Green plant response rating (0 to 100 scale) ([13]; 500 g ai/ha): 100; Barnyardgrass plant response rating (0 to 100 scale) [14]: 0; Barnyardgrass plant response rating (0 to 100 scale) [15]: 20; Barnyardgrass plant response rating [15]: 100; Ducksalad plant response rating (0 to 100 scale) [16]: 0; Rice plant response rating (0 to 100 scale) (rice (Oryza sativa)): 0
